In US6737383B1, “Herbicidal oxadiazolidines” (priority 1999, dated 2004):

Key:
[1] = tested on: crabgrass; test: Test B pre/postemergence crabgrass; assay type: in vivo, Digitaria sanguinalis
How it was run: (§1)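 Test chemicals in a non-phytotoxic solvent mixture with surfactant were sprayed preemergence onto planted seeds and postemergence onto plants 2 to 18 cm tall (1- to 4-leaf stage). After twelve to sixteen days in a greenhouse, injury was visually rated against untreated controls from 0 (no effect) to 10 (complete control).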

[2] = tested on: wheat; test: Test B pre/postemergence wheat; assay type: in vivo, Triticum aestivum
How it was run: as §1

[3] = tested on: duck salad; test: Test B flood test duck salad; assay type: in vivo, Heteranthera limosa
How it was run: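 Flood test on plants grown to the 2-leaf stage; treated plants kept in greenhouse twelve to sixteen days, then visually rated against controls on a 0 (no effect) to 10 (complete control) scale.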

[4] = tested on: giant foxtail; test: Test B pre/postemergence giant foxtail; assay type: in vivo, Setaria faberii
How it was run: as §1

[5] = Preemergence, Rate 62 g/ha, scale of 0 to 10 where 0 is no effect and 10 is complete control
[6] = Preemergence, Rate 125 g/ha, 0 is no effect, 10 is complete control
[7] = Preemergence, Rate 250 g/ha, scale 0 to 10, 0 is no effect, 10 is complete control
[8] = Preemergence, Rate 500 g/ha, scale of 0 to 10 where 0 is no effect and 10 is complete control
[9] = Rate 62 g/ha, Postemergence, scale of 0 to 10 where 0 is no effect and 10 is complete control
[10] = Rate 125 g/ha, Postemergence, scale 0 to 10
[11] = Rate 500 g/ha, Postemergence, scale 0 to 10
[12] = Rate 62 g/ha, headed Pre-emergence (flood test species), scale 0 to 10 (0 no effect, 10 complete control)
[13] = Rate 125 g/ha, Pre-emergence, flood test species, scale 0 to 10 where 0 is no effect and 10 is complete control
[14] = Rate 250 g/ha, Pre-emergence, flood-test species, scale 0 to 10, 0 is no effect, 10 is complete control
[15] = Preemergence, Rate 250 g/ha, scale of 0 to 10 where 0 is no effect and 10 is complete control
[16] = Rate 125 g/ha, Preemergence, scale of 0 to 10 where 0 is no effect and 10 is complete control
[17] = Rate 500 g/ha, Postemergence, scale 0 to 10, 0 no effect, 10 complete control
[18] = Rate 500 g/ha, Pre-emergence, flood test species, scale 0 to 10 (0 no effect, 10 complete control)

| Compound | Crabgrass plant response rating [1, 5] | Plant response rating, Crabgrass [1, 8] | Crabgrass plant response rating [1, 9] | Crabgrass plant response rating [1, 10] | Plant response rating (0 to 10; 0 is no effect, 10 is complete control), Crabgrass ([1]; Rate 250 g/ha, Postemergence) | Wheat plant response rating [2, 5] | Plant response rating, Wheat [2, 8] | Wheat plant response rating [2, 9] | Wheat plant response rating [2, 10] | Plant response rating (0 to 10; 0 is no effect, 10 is complete control), Wheat ([2]; Rate 250 g/ha, Postemergence) | Ducksalad plant response rating [3, 12] | Ducksalad plant response rating [3, 13] | Ducksalad plant response rating [3, 14] | Giant foxtail plant response rating [4, 5] | Plant response rating, Giant foxtail [4, 8] | Giant foxtail plant response rating [4, 9] | Giant foxtail plant response rating [4, 10] | Plant response rating (0 to 10; 0 is no effect, 10 is complete control), Giant foxtail ([4]; Rate 250 g/ha, Postemergence) | Crabgrass plant response rating [1, 15] | Crabgrass plant response rating [1, 16] | also measured |
| --- | --- | --- | --- | --- | --- | --- | --- | --- | --- | --- | --- | --- | --- | --- | --- | --- | --- | --- | --- | --- | --- |
| Cc1ccccc1-n1c(=O)on(C(=O)N(c2ccc(S(C)(=O)=O)cc2)C(C)C)c1=O [Compound 203] | 0 | 0 | 0 | 0 | 0 | 0 | 0 | 0 | 0 | 0 | 0 | 0 | 0 | 0 | 0 | 0 | 0 | 0 | – | – | Crabgrass plant response rating (0 to 10 scale) [1, 6]: 0; Crabgrass plant response rating [1, 7]: 0; Crabgrass plant response rating [1, 11]: 0; Wheat plant response rating [2, 7]: 0; Plant response rating, Ducksalad ([3]; Rate 500 g/ha, headed Pre-emergence (flood test species), scale 0 to 10 (0 no effect, 10 complete control)): 0; Giant foxtail plant response rating (0 to 10 scale) [4, 6]: 0; Giant foxtail plant response rating [4, 7]: 0; Giant foxtail plant response rating [4, 11]: 0 |
| COCCOCn1c(=O)on(C(=O)N(c2ccc(F)cc2)C(C)C)c1=O [Compound 220] | 7 | 10 | 3 | 5 | 7 | 6 | 8 | 3 | 4 | 6 | 0 | 0 | 0 | 9 | 10 | 5 | 6 | 8 | 8 | 7 | Crabgrass plant response rating [1, 17]: 9; Wheat plant response rating [2, 15]: 8; Wheat plant response rating [2, 16]: 7; Wheat plant response rating [2, 17]: 6; Ducksalad plant response rating [3, 18]: 0; Giant foxtail plant response rating [4, 15]: 10; Giant foxtail plant response rating [4, 16]: 9; Giant foxtail plant response rating [4, 17]: 8 |
| Cc1cc(C)c(-n2c(=O)on(C(=O)N(c3ccc(F)cc3)C(C)C)c2=O)c(Br)c1 [Compound 224] | 2 | 10 | 0 | 0 | 3 | 0 | 0 | 0 | 0 | 0 | 0 | 0 | 0 | 3 | 10 | 0 | 0 | 4 | 9 | 5 | Crabgrass plant response rating [1, 17]: 0; Wheat plant response rating [2, 15]: 0; Wheat plant response rating [2, 16]: 0; Wheat plant response rating [2, 17]: 0; Ducksalad plant response rating [3, 18]: 0; Giant foxtail plant response rating [4, 15]: 9; Giant foxtail plant response rating [4, 16]: 7; Giant foxtail plant response rating [4, 17]: 0 |
| CCC(C)N(C(=O)n1oc(=O)n(-c2ccccc2C)c1=O)c1ccc(F)cc1 (stereo not drawn) [Compound 239] | – | 10 | 0 | – | 2 | 0 | 2 | 0 | – | – | 0 | 0 | 0 | 4 | 10 | 0 | – | 1 | 10 | 7 | Crabgrass plant response rating [1, 17]: 6; Wheat plant response rating [2, 15]: 0; Wheat plant response rating [2, 16]: 0; Wheat plant response rating [2, 17]: 0; Ducksalad plant response rating [3, 18]: 0; Giant foxtail plant response rating [4, 15]: 10; Giant foxtail plant response rating [4, 16]: 10; Giant foxtail plant response rating [4, 17]: 6 |
